Test results from paper PMC8912008, “Pharmacokinetic Study of Withanosides and Withanolides from Withania somnifera Using Ultra-High Performance Liquid Chromatography-Tandem Mass Spectrometry (UHPLC-MS/MS)” (Molecules, 2022).
Read-outs that look alike come from different tables or passages of the source.

Experiments:
[1] = Stability of analytes in rat plasma; details: n = 6; for Processed sample stability (% ± SD): processed rat plasma sample, 4 h; for Bench top Stability (% ± SD): 25 °C for 4 h; for Freeze-thaw stability (% ± SD): three freeze/thaw cycles
Experimental: Six replicates of quality control samples were analyzed at four concentration levels (LLOQ, LQC, MQC, and HQC; n = 6) on the same day (intra-day) and repeated for three consecutive days (inter-day) (Table S2). The precision was expressed as the relative standard deviation (% RSD), and accuracy was reported as the relative error (% RE). Later, these samples were analyzed for stability testing under the following conditions: three complete freeze/thaw cycles (−80 °C to 25 °C), long-term sample storage (−80 °C for 60 days), processed sample, and bench-top (25 °C for 4 h).

in vivo = details: for AUC(0-inf) / AUC(0-t) / Cmax / MRT inf / Tmax / half-life / k el: male, Sprague Dawley
Source text: It is known that the hydrophobic interior surface of the cell membrane (lipid bilayer) serves as a barrier to the passage of polar and high molecular weight molecules.
Food pellets and tap water were provided ad libitum throughout the experimentation. The protocol to carry out in vivo pharmacokinetics was approved by The Institutional Animal Ethics Committee (IAEC) of Crystal Biological Solution, Pune, Maharashtra, India. […] Eighteen animals were subdivided into three groups, (n = 6) animals in each group. Withania somnifera extract suspension was prepared in water for oral administration, and the dose was calculated based on the acute oral toxicity study (500 mg/kg; single dose). […] The separated plasma samples were transferred into Eppendorf tubes and stored at −80 °C in a deep freezer until analysis. Ten pharmacokinetic parameters were determined using PK solver 2.0, USA [45, 46, 47]. The maximum observed concentration (Cmax) and maximum observed time (Tmax) were calculated directly from the experimental results. The elimination rate constant (Kel) was calculated from the slope of the linear regression of Log concentrations as a function of time. […] The area under the curve (AUC(0–t)) was calculated from the linear curve following the trapezoidal rule, while AUC(0–∞) was calculated by adding Ct/λ, with Ct being the final measurable concentration. Oral clearance (Cl/F) was obtained from the equation Cl/F = dose/AUC(0–∞). Mean residence time (MRT) was calculated as AUMC(0–∞)/AUC(0–∞), where AUMC(0–∞) is the area under the first moment curve. […] The pharmacokinetic parameters as the average of six rats ± SD. The mean plasma concentration Vs. time curve (mean ± SD) was prepared using Prism 8.2, (GraphPad, San Diego, CA, USA).

in vitro = details: rat
Source text: (§1) The everted intestinal segment was mounted on the apparatus and setting it in the beaker. The internal surface of the glass tubes serves as the mucosal compartment, and the beaker serves as the serosal compartment. Animals were humanly sacrificed by cervical dislocation followed by a midline incision. The abdominal cavity was opened carefully, and the intestine was maneuvered to identify the ileocecal junction. A 7 cm long intestinal segment distant to the ileocecal junction (5–6 cm) was excised by carefully removing the mesenteric attachments without causing any damage to the intestinal architecture. The segment was cleaned using the Kreb’s Ringer Bicarbonate (KRB) buffer medium and was stored in KRB buffer in a petri dish. The cleaned segment was then everted gently using a glass rod. Finally, a 3 cm long intestinal segment was used to perform the permeability study [49, 50].
(§2) The tissue was mounted on the apparatus and was placed in a 1000 mL beaker containing 2 mg/mL WSE suspension. The intestinal segment was perfused from the mucosal end using the KRB buffer. The apparatus (beaker with tissue) was placed on the magnetic stirrer followed by continuous stirring using a magnetic bead at 25 rpm to mimic the peristaltic movement of the stomach at 37 °C with appropriate aeration. The sample collection at different time points was carried out every 5 min interval for 1 h. The collected samples were further diluted and analyzed using LC-MS/MS.
(§3) The sample was diluted to 20-fold in ACN and injected 2 µL into LC-MS/MS. Samples were stored at −20 °C until analysis using validated UHPLC-MS/MS. The permeability was obtained by plotting the cumulative amount transported (ng) across the gut sac against time (second).
(§4) The calculation of apparent permeability (Papp) was carried out using the following Equation (1):Papp = dQ/dt × 1/A × C0(1) where Papp: apparent permeability co-efficient; dQ/dt: the cumulative amount of drug (Q) appearing in the acceptor (serosal) compartment as a function of time and was obtained from the slope of the linear portion of the amount transported-versus-time plot. A: Surface area of the intestine (cm^2) (0.18 cm as radius) and C0: Initial concentration of drug in the donor compartment (ng/mL).

chromosomes = system: chromosomes
Experimental: After completing the study, chromosomal slides were observed under 100×, and the % aberrated chromosomes were calculated.

[2] = Balb/C mice, 4 mg/kg single intraperitoneal; cited from earlier work
[3] = Ex vivo permeability study, everted rat intestine apparatus
Source text: as §1, §2, §3, §4

[4] = male rats, cited from earlier work
[5] = mice, oral Withania somnifera aqueous extract 1000 mg/kg; cited from earlier work
[6] = high QC (nominal 200.50-201.50 ng/mL)
[7] = low QC (nominal 10.05-10.50 ng/mL)
[8] = rat plasma, high QC (nominal 200.50-201.50 ng/mL)
[9] = rat plasma, low QC (nominal 10.05-10.50 ng/mL)

## CC1=C(CO)C(=O)OC(C(C)C2CCC3C4C5OC5C5(O)CC=CC(=O)C5(C)C4CCC23C)C1 (centres unmarked) [12-Deoxy-withastramonolide]
[1]; [6]
  Processed sample stability (% ± SD): 92.99 ± 8.83%
[1]; [7]
  Processed sample stability (% ± SD): 121.14 ± 59.07%
[1]; [8]
  Bench top Stability (% ± SD): 95.97 ± 7.13%
  Autosampler stability (% ± SD): 108.67 ± 1.94%
  Freeze-thaw stability (% ± SD): 97.78 ± 4.28%
[1]; [9]
  Bench top Stability (% ± SD): 97.92 ± 7.04%
  Autosampler stability (% ± SD): 101.72 ± 3.25%
  Freeze-thaw stability (% ± SD): 101.34 ± 8.37%
In vivo; rat, in vivo, po, 500 mg/kg
  AUC(0-inf): 92.3 ± 13.5 ng·h/mL
  AUC(0-t): 82.9 ± 7.82 ng·h/mL
  Cmax: 57.5 ± 7.52 ng/mL
  MRT inf: 2.34 ± 0.666 h
  Tmax: 0.291 ± 0.102 h
  half-life: 1.73 ± 0.505 h
  k el: 0.000121 s⁻¹
  oral clearance (Cl/F): 0.016 ± 0.002 (mg/kg)/(ng/mL)/h
In vitro
  Papp at 1 h, 2 mg/mL: 0.122 ×10⁻⁶ cm/s

## O=P1(N(CCCl)CCCl)NCCCO1 (centres unmarked) [Cyclophosphamide]
chromosomes
  % Aberration: 52%
  MI mitotic index: 52
  RCG (%) relative cell growth: 112%
  RMI (%) relative mitotic index: 85%
  Ratio with Negative: 10.40

## CC1=C(CO)C(=O)O[C@@H]([C@@H](C)[C@H]2CC[C@H]3[C@@H]4C[C@H]5O[C@]56[C@@H](O)C=CC(=O)[C@]6(C)[C@H]4CC[C@]23C)C1 [Withaferin A]
[1]; [6]
  Processed sample stability (% ± SD): 99.56 ± 5.11%
[1]; [7]
  Processed sample stability (% ± SD): 103.30 ± 8.41%
[1]; [8]
  Bench top Stability (% ± SD): 94.72 ± 6.57%
  Autosampler stability (% ± SD): 108.40 ± 1.59%
  Freeze-thaw stability (% ± SD): 102.10 ± 5.76%
[1]; [9]
  Bench top Stability (% ± SD): 103.30 ± 8.41%
  Autosampler stability (% ± SD): 103.09 ± 4.95%
  Freeze-thaw stability (% ± SD): 103.41 ± 5.62%
[1]; rat plasma, −80 °C for 60 days, high QC (nominal 200.50-201.50 ng/mL), the values are: measured concentration
  Long-term stability (% ± SD): 204 ± 8.81 ng/mL
[2]
  AUC(0–t): 1.09 µM·h
  Clearance from plasma: 0.151 L/h
  Cmax: 1800 nM
  Tmax: 4.98 min
  plasma half-life: 1.36 h
[3]
  Papp at 1 h, 2 mg/mL: 0.113 ×10⁻⁶ cm/s
[4]; withaferin A 10 mg/kg oral dose, 5 mg/kg I.V. dose
  bioavailability: 32.4 ± 4.8%
[4]; withaferin A 10 mg/kg oral
  Cmax: 619 ± 125 ng/mL
  Tmax: 6.6 ± 4.2 min
  half-life: 7.6 ± 3.3 h
In vivo; rat, plasma, po, 500 mg/kg
  AUC(0-inf): 188 ± 20.5 ng·h/mL
  AUC(0-t): 161 ± 18.9 ng·h/mL
  Cmax: 124 ± 64.9 ng/mL
  MRT inf: 3.85 ± 0.857 h
  Tmax: 0.25 h
  half-life: 3.15 ± 0.612 h
  k el: 6.28e-05 s⁻¹
In vivo; rat, WSE 500 mg/kg oral single dose
  oral clearance (Cl/F): 0.026 ± 0.003 (mg/kg)/(ng/mL)/h
[5]
  Tmax: 0.3333 h
  plasma half-life (t1/2): 0.9987 ± 0.265 h

## CC1=C(C)C(=O)O[C@@H]([C@](C)(O)[C@H]2CC[C@H]3[C@@H]4[C@@H]5O[C@@H]5[C@@]5(O)CC=CC(=O)[C@]5(C)[C@H]4CC[C@]23C)C1 [Withanolide A]
[1]; [6]
  Processed sample stability (% ± SD): 99.36 ± 6.79%
[1]; [7]
  Processed sample stability (% ± SD): 128.43 ± 68.06%
[1]; [8]
  Bench top Stability (% ± SD): 103.63 ± 6.10%
  Autosampler stability (% ± SD): 105.04 ± 3.63%
  Freeze-thaw stability (% ± SD): 98.89 ± 4.24%
[1]; [9]
  Bench top Stability (% ± SD): 102.00 ± 7.99%
  Autosampler stability (% ± SD): 105.35 ± 3.83%
  Freeze-thaw stability (% ± SD): 102.18 ± 6.01%
In vivo; rat, in vivo, po, 500 mg/kg
  AUC(0-inf): 7.53 ± 1.83 ng·h/mL
  AUC(0-t): 4.18 ± 1.03 ng·h/mL
  Cmax: 7.28 ± 3.34 ng/mL
  MRT inf: 1.25 ± 0.571 h
  Tmax: 0.333 ± 0.129 h
  half-life: 0.728 ± 0.423 h
  k el: 0.000391 s⁻¹
  oral clearance (Cl/F): 0.356 ± 0.090 (mg/kg)/(ng/mL)/h
[5]
  plasma half-life (t1/2): 0.7537 ± 0.166 h
In vitro
  Papp at 1 h, 2 mg/mL: 0.0665 ×10⁻⁶ cm/s

## CC1=C(C)C(=O)O[C@@H]([C@@H](C)[C@H]2CC[C@H]3[C@@H]4[C@@H]5O[C@@H]5[C@@]5(O)CC=CC(=O)[C@]5(C)[C@H]4CC[C@]23C)C1 [Withanolide B]
[1]; [6]
  Processed sample stability (% ± SD): 95.01 ± 5.83%
[1]; [7]
  Processed sample stability (% ± SD): 113.48 ± 47.73%
[1]; [8]
  Bench top Stability (% ± SD): 96.83 ± 6.66%
  Autosampler stability (% ± SD): 97.26 ± 3.36%
  Freeze-thaw stability (% ± SD): 93.48 ± 6.55%
[1]; [9]
  Bench top Stability (% ± SD): 95.51 ± 5.04%
  Autosampler stability (% ± SD): 98.84 ± 4.54%
  Freeze-thaw stability (% ± SD): 116.31 ± 36.76%
In vitro
  Papp at 1 h, 2 mg/mL: 0.0131 ×10⁻⁶ cm/s

## CC1=C(C)C(=O)O[C@@H]([C@@H](C)[C@@]2(O)CC[C@H]3[C@@H]4[C@@H]5O[C@@H]5[C@@]5(O)CC=CC(=O)[C@]5(C)[C@H]4CC[C@@]32C)C1 [Withanone]
[1]; [6]
  Processed sample stability (% ± SD): 99.56 ± 4.91%
[1]; [7]
  Processed sample stability (% ± SD): 112.07 ± 37.93%
[1]; [8]
  Bench top Stability (% ± SD): 98.87 ± 9.47%
  Autosampler stability (% ± SD): 111.25 ± 4.86%
  Freeze-thaw stability (% ± SD): 98.14 ± 4.74%
[1]; [9]
  Bench top Stability (% ± SD): 96.31 ± 6.27%
  Autosampler stability (% ± SD): 109.47 ± 4.01%
  Freeze-thaw stability (% ± SD): 104.24 ± 7.98%
In vivo; rat plasma after WSE 500 mg/kg oral, LLOQ 3 ng/mL
  concentration in plasma: below LLOQ
In vitro
  Papp at 1 h, 2 mg/mL: 0.0317 ×10⁻⁶ cm/s

## CC1=C(CO)C(=O)O[C@@H]([C@@H](C)[C@H]2CC[C@H]3[C@@H]4CC=C5C[C@@H](O[C@@H]6O[C@H](CO[C@@H]7O[C@H](CO)[C@@H](O)[C@H](O)[C@H]7O)[C@@H](O)[C@H](O)[C@H]6O)C[C@H](O)[C@]5(C)[C@H]4CC[C@]23C)C1 [Withanoside IV]
[1]; [6]
  Processed sample stability (% ± SD): 101.10 ± 9.54%
[1]; [7]
  Processed sample stability (% ± SD): 104.41 ± 4.84%
[1]; [8]
  Bench top Stability (% ± SD): 100.34 ± 10.45%
  Autosampler stability (% ± SD): 111.61 ± 0.88%
  Freeze-thaw stability (% ± SD): 98.95 ± 5.47%
[1]; [9]
  Bench top Stability (% ± SD): 104.41 ± 4.84%
  Autosampler stability (% ± SD): 108.21 ± 2.00%
  Freeze-thaw stability (% ± SD): 104.78 ± 5.59%
In vivo; rat, in vivo, po, 500 mg/kg
  AUC(0-inf): 22.9 ± 5.73 ng·h/mL
  AUC(0-t): 14 ± 3.7 ng·h/mL
  Cmax: 13.8 ± 3.73 ng/mL
  MRT inf: 2.08 ± 0.394 h
  Tmax: 0.75 h
  half-life: 1.1 ± 0.272 h
  k el: 0.000182 s⁻¹
  Cl/F (oral clearance): 0.176 ± 0.037
  Vdapp (mean apparent volume of distribution): 0.278 ± 0.083
  oral clearance (Cl/F): 0.176 ± 0.037 (mg/kg)/(ng/mL)/h
In vitro
  Papp at 1 h, 2 mg/mL: 0.142 ×10⁻⁶ cm/s

## CC1=C(C)C(=O)O[C@@H]([C@@H](C)[C@H]2CC[C@H]3[C@@H]4CC=C5C[C@@H](O[C@@H]6O[C@H](CO[C@@H]7O[C@H](CO)[C@@H](O)[C@H](O)[C@H]7O)[C@@H](O)[C@H](O)[C@H]6O)C[C@H](O)[C@]5(C)[C@H]4CC[C@]23C)C1 [Withanoside V]
[1]; [6]
  Processed sample stability (% ± SD): 90.47 ± 6.50%
[1]; [7]
  Processed sample stability (% ± SD): 134.85 ± 90.10%
[1]; [8]
  Bench top Stability (% ± SD): 91.74 ± 8.97%
  Autosampler stability (% ± SD): 111.25 ± 4.54%
  Freeze-thaw stability (% ± SD): 99.38 ± 6.58%
[1]; [9]
  Bench top Stability (% ± SD): 99.58 ± 8.68%
  Autosampler stability (% ± SD): 109.83 ± 8.35%
  Freeze-thaw stability (% ± SD): 105.13 ± 6.95%
In vitro
  Papp at 1 h, 2 mg/mL: 0.0343 ×10⁻⁶ cm/s
